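Step 1: Grow cells in 96-well plates. Step 2: Expose to compound for 48 hours at 5 concentrations. Step 3: Interpolate endpoints linearly; if unreached, use highest concentration. TGI denotes the concentration required for complete inhibition of growth.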
Tests used:
Assay in all cases: NCI tumour cell line growth inhibition, 48 h
NCI-H522 lung = test system: NCI-H522 lung
U251 CNS = test system: U251 CNS
NCI-H460 lung = test system: NCI-H460 lung
XF 498 CNS = test system: XF 498 CNS
HCT-15 colon = test system: HCT-15 colon
HT29 colon = test system: HT29 colon
MALME-3M melanoma = test system: MALME-3M melanoma
OVCAR-5 ovarian = test system: OVCAR-5 ovarian
SNB-75 CNS = test system: SNB-75 CNS
M14 melanoma = test system: M14 melanoma
HCT-116 colon = test system: HCT-116 colon
LOX IMVI melanoma = test system: LOX IMVI melanoma
SF-539 CNS = test system: SF-539 CNS
HL-60(TB) leukemia = test system: HL-60(TB) leukemia
UO-31 renal = test system: UO-31 renal
RXF 393 renal = test system: RXF 393 renal
HOP-62 NSCLC = test system: HOP-62 NSCLC
OVCAR-8 ovarian = test system: OVCAR-8 ovarian
K-562 leukemia = test system: K-562 leukemia
SK-MEL-2 melanoma = test system: SK-MEL-2 melanoma
CCRF-CEM leukemia = test system: CCRF-CEM leukemia
SK-MEL-28 melanoma = test system: SK-MEL-28 melanoma
KM12 colon = test system: KM12 colon
SK-MEL-5 melanoma = test system: SK-MEL-5 melanoma
SW-620 colon = test system: SW-620 colon
SF-295 CNS = test system: SF-295 CNS
EKVX NSCLC = test system: EKVX NSCLC
RPMI-8226 leukemia = test system: RPMI-8226 leukemia
KM20L2 colon = test system: KM20L2 colon
HOP-92 NSCLC = test system: HOP-92 NSCLC
OVCAR-3 ovarian = test system: OVCAR-3 ovarian
A549 NSCLC = test system: A549 NSCLC
SF-268 CNS = test system: SF-268 CNS
UACC-257 melanoma = test system: UACC-257 melanoma
CAKI-1 renal = test system: CAKI-1 renal
SN12C renal = test system: SN12C renal
DMS 273 small cell lung = test system: DMS 273 small cell lung
TK-10 renal = test system: TK-10 renal
UACC-62 melanoma = test system: UACC-62 melanoma
786-0 renal = test system: 786-0 renal
NCI-H226 lung = test system: NCI-H226 lung
DLD-1 colon = test system: DLD-1 colon
HOP-18 NSCLC = test system: HOP-18 NSCLC
DMS 114 small cell lung = test system: DMS 114 small cell lung
RXF-631 renal = test system: RXF-631 renal
MOLT-4 leukemia = test system: MOLT-4 leukemia
SNB-19 CNS = test system: SNB-19 CNS
SNB-78 CNS = test system: SNB-78 CNS
NCI-H23 lung = test system: NCI-H23 lung
COLO 205 colon = test system: COLO 205 colon
SK-OV-3 ovarian = test system: SK-OV-3 ovarian
LXFL 529 NSCLC = test system: LXFL 529 NSCLC
HCC-2998 colon = test system: HCC-2998 colon
IGROV1 ovarian = test system: IGROV1 ovarian
A498 renal = test system: A498 renal
ACHN renal = test system: ACHN renal
SN12K1 renal = test system: SN12K1 renal
M19-MEL melanoma = test system: M19-MEL melanoma
MCF7 breast = test system: MCF7 breast
P388/ADR leukemia = test system: P388/ADR leukemia
NCI/ADR-RES ovarian = test system: NCI/ADR-RES ovarian
OVCAR-4 ovarian = test system: OVCAR-4 ovarian

Cc1ccc(NC(=O)C2C(=O)N(c3ccc(C)c(C)c3)C(=O)/C2=N/O)cc1C (configuration not stated)
TGI (NCI-H522 lung): > 100 µM
TGI (U251 CNS): > 100 µM
TGI (NCI-H460 lung): > 100 µM
TGI (XF 498 CNS): > 100 µM
TGI (HCT-15 colon): > 100 µM
TGI (HT29 colon): > 100 µM
TGI (MALME-3M melanoma): > 100 µM
TGI (OVCAR-5 ovarian): > 100 µM
TGI (SNB-75 CNS): > 100 µM
TGI (M14 melanoma): > 100 µM
TGI (HCT-116 colon): > 100 µM
TGI (LOX IMVI melanoma): 38.3 µM
TGI (SF-539 CNS): > 100 µM
TGI (HL-60(TB) leukemia): > 100 µM
TGI (UO-31 renal): > 100 µM
TGI (RXF 393 renal): > 100 µM
TGI (HOP-62 NSCLC): > 100 µM
TGI (OVCAR-8 ovarian): > 100 µM
TGI (K-562 leukemia): > 100 µM
TGI (SK-MEL-2 melanoma): > 100 µM
TGI (CCRF-CEM leukemia): > 100 µM
TGI (SK-MEL-28 melanoma): > 100 µM
TGI (KM12 colon): > 100 µM
TGI (SK-MEL-5 melanoma): > 100 µM
TGI (SW-620 colon): 37.2 µM
TGI (SF-295 CNS): > 100 µM
TGI (EKVX NSCLC): > 100 µM
TGI (RPMI-8226 leukemia): > 100 µM
TGI (KM20L2 colon): > 100 µM
TGI (HOP-92 NSCLC): > 100 µM
TGI (OVCAR-3 ovarian): > 100 µM
TGI (A549 NSCLC): > 100 µM
TGI (SF-268 CNS): > 100 µM
TGI (UACC-257 melanoma): > 100 µM
TGI (CAKI-1 renal): > 100 µM
TGI (SN12C renal): > 100 µM
TGI (DMS 273 small cell lung): > 100 µM
TGI (TK-10 renal): > 100 µM
TGI (UACC-62 melanoma): > 100 µM
TGI (786-0 renal): > 100 µM
TGI (NCI-H226 lung): > 100 µM
TGI (DLD-1 colon): > 100 µM
TGI (HOP-18 NSCLC): > 100 µM
TGI (DMS 114 small cell lung): > 100 µM
TGI (RXF-631 renal): > 100 µM
TGI (MOLT-4 leukemia): > 100 µM
TGI (SNB-19 CNS): > 100 µM
TGI (SNB-78 CNS): > 100 µM
TGI (NCI-H23 lung): > 100 µM
TGI (COLO 205 colon): > 100 µM
TGI (SK-OV-3 ovarian): > 100 µM
TGI (LXFL 529 NSCLC): > 100 µM
TGI (HCC-2998 colon): > 100 µM
TGI (IGROV1 ovarian): > 100 µM
TGI (A498 renal): > 100 µM
TGI (ACHN renal): > 100 µM

CC[C@]12C=CCN3CC[C@@]4(c5ccc(OC)cc5N(C)[C@H]4[C@@](O)(C(=O)OC)[C@@H]1OC(C)=O)[C@@H]32
TGI (NCI-H522 lung): > 200 µM
TGI (SN12K1 renal): > 200 µM
TGI (U251 CNS): > 200 µM
TGI (NCI-H460 lung): > 200 µM
TGI (XF 498 CNS): > 200 µM
TGI (HCT-15 colon): > 63.2 µM
TGI (HT29 colon): > 200 µM
TGI (MALME-3M melanoma): > 200 µM
TGI (OVCAR-5 ovarian): > 200 µM
TGI (SNB-75 CNS): > 200 µM
TGI (M19-MEL melanoma): > 63.2 µM
TGI (HCT-116 colon): > 200 µM
TGI (LOX IMVI melanoma): > 200 µM
TGI (SF-539 CNS): > 200 µM
TGI (HL-60(TB) leukemia): > 200 µM
TGI (UO-31 renal): > 92.8 µM
TGI (RXF 393 renal): > 200 µM
TGI (MCF7 breast): > 200 µM
TGI (HOP-62 NSCLC): > 200 µM
TGI (OVCAR-8 ovarian): > 11.2 µM
TGI (K-562 leukemia): > 200 µM
TGI (SK-MEL-2 melanoma): > 200 µM
TGI (CCRF-CEM leukemia): > 200 µM
TGI (SK-MEL-28 melanoma): > 200 µM
TGI (KM12 colon): > 200 µM
TGI (P388/ADR leukemia): > 200 µM
TGI (SK-MEL-5 melanoma): > 200 µM
TGI (SW-620 colon): > 200 µM
TGI (SF-295 CNS): > 200 µM
TGI (NCI/ADR-RES ovarian): > 200 µM
TGI (EKVX NSCLC): > 200 µM
TGI (RPMI-8226 leukemia): > 200 µM
TGI (KM20L2 colon): > 164 µM
TGI (HOP-92 NSCLC): 132 µM
TGI (OVCAR-3 ovarian): > 112 µM
TGI (A549 NSCLC): > 200 µM
TGI (SF-268 CNS): > 200 µM
TGI (UACC-257 melanoma): > 200 µM
TGI (CAKI-1 renal): > 200 µM
TGI (SN12C renal): > 200 µM
TGI (DMS 273 small cell lung): > 200 µM
TGI (UACC-62 melanoma): > 200 µM
TGI (OVCAR-4 ovarian): > 63.2 µM
TGI (NCI-H226 lung): > 200 µM
TGI (DLD-1 colon): > 200 µM
TGI (HOP-18 NSCLC): > 200 µM
TGI (DMS 114 small cell lung): > 200 µM
TGI (MOLT-4 leukemia): > 176 µM
TGI (SNB-19 CNS): > 200 µM
TGI (SNB-78 CNS): > 200 µM
TGI (NCI-H23 lung): > 200 µM
TGI (COLO 205 colon): > 200 µM
TGI (SK-OV-3 ovarian): > 200 µM
TGI (HCC-2998 colon): > 200 µM
TGI (IGROV1 ovarian): > 200 µM
TGI (A498 renal): > 200 µM

Source: PubChem BioAssay (NCI)
